Values quoted from earlier work in patent US20140038836A1, “Novel Pharmacogene Single Nucleotide Polymorphisms and Methods of Detecting Same” (priority 2012, published 2014).
Like-named read-outs stand apart in the source and are kept apart here.

Key:
[1] = target: T1, ADRA2A (alpha2A subtype alpha-2-adrenergic receptor) (Homo sapiens, UniProt P08913); conditions: for rank order of potency for agonists: agonists of the alpha2A receptor; for rank order for antagonists: antagonists of the alpha2A receptor
T1 sequence (P08913 1-465): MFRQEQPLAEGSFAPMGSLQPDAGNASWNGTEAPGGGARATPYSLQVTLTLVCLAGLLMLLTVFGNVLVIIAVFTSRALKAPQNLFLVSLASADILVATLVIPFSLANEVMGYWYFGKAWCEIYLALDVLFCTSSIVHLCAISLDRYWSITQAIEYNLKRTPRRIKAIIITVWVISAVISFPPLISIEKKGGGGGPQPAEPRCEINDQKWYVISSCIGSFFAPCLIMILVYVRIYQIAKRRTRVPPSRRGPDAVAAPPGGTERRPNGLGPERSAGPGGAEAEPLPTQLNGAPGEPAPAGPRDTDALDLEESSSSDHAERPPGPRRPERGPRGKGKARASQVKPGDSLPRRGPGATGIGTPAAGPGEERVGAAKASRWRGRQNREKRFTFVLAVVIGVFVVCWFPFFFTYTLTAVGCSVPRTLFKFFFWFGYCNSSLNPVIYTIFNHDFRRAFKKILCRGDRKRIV

[2] = tested on: schizophrenic Chinese patients from Shanghai; conditions: 230-bp allele of (GT)n repeat or 230-bp/C-270/rs6265G haplotype versus other alleles or haplotypes
[3] = tested on: Caucasian patients with major depression; conditions: ABCB1 3435TT allele; P=0.042, 95% CI 1.01-1.86
[4] = tested on: patients diagnosed with generalized anxiety disorder; conditions: carriers of HTR2A rs7997012 G-allele
[5] = tested on: Japanese major depression sample; conditions: 3435TT genotype (p=0.0008), haplotype block 3435C-2677G-1236T, 6 weeks
[6] = tested on: patients with schizophrenia; conditions: (T) allele of rs3813929
[7] = tested on: patients of Asian ethnicity with Major Depressive Disorder; conditions: carriers of 3435TT (rs1045642) genotype, p=0.001
[8] = homozygote ABCB1 3435TT carriers
[9] = tested on: psychotic Caucasian patients; conditions: 3435CC or 2677GG genotypes versus heterozygous or TT carriers

NCC(O)c1ccc(O)cc1 (stereo not shown) [p-octopamine]
rank order of potency for agonists [1]: oxymetazoline>clonidine>epinephrine>norepinephrine>phenylephrine>dopamine>p-synephrine>p-tyramine>serotonin=p-octopamine

CN(C)CCCN1c2ccccc2Sc2ccc(Cl)cc21 [chlorpromazine]
rank order for antagonists [1]: yohimbine>phentolamine=mianserine>chlorpromazine=spiperone=prazosin>propanolol>alprenolol=pindolol

NCCc1c[nH]c2ccc(O)cc12 [serotonin]
rank order of potency for agonists [1]: oxymetazoline>clonidine>epinephrine>norepinephrine>phenylephrine>dopamine>p-synephrine>p-tyramine>serotonin=p-octopamine

CN1CCN2c3ncccc3Cc3ccccc3C2C1 (stereo not shown) [mirtazapine]
P-gp substrate property (P-gp): not substrates of P-gp

Clc1cccc(Cl)c1N=C1NCCN1 [clonidine]
rank order of potency for agonists [1]: oxymetazoline>clonidine>epinephrine>norepinephrine>phenylephrine>dopamine>p-synephrine>p-tyramine>serotonin=p-octopamine

CNCC(O)c1ccc(O)cc1 (stereo not shown) [p-synephrine]
rank order of potency for agonists [1]: oxymetazoline>clonidine>epinephrine>norepinephrine>phenylephrine>dopamine>p-synephrine>p-tyramine>serotonin=p-octopamine

CNC[C@H](O)c1ccc(O)c(O)c1 [epinephrine]
rank order of potency for agonists [1]: oxymetazoline>clonidine>epinephrine>norepinephrine>phenylephrine>dopamine>p-synephrine>p-tyramine>serotonin=p-octopamine

CN(C)CCCC1(c2ccc(F)cc2)OCc2cc(C#N)ccc21 (stereo not shown) [citalopram]
P-gp substrate property (P-gp): substrates of P-gp

CN1CCN2c3ccccc3Cc3ccccc3C2C1 (stereo not shown) [mianserine]
rank order for antagonists [1]: yohimbine>phentolamine=mianserine>chlorpromazine=spiperone=prazosin>propanolol>alprenolol=pindolol

C=CCc1ccccc1OCC(O)CNC(C)C (stereo not shown) [alprenolol]
rank order for antagonists [1]: yohimbine>phentolamine=mianserine>chlorpromazine=spiperone=prazosin>propanolol>alprenolol=pindolol

CN(C)CCC=C1c2ccccc2CCc2ccccc21 [amitriptyline]
P-gp substrate property (P-gp): substrates of P-gp

Cc1ccc(N(CC2=NCCN2)c2cccc(O)c2)cc1 [phentolamine]
rank order for antagonists [1]: yohimbine>phentolamine=mianserine>chlorpromazine=spiperone=prazosin>propanolol>alprenolol=pindolol

Cc1nc2n(c(=O)c1CCN1CCC(c3noc4cc(F)ccc34)CC1)CCCC2 [risperidone]
AUC of risperidone (3435TT versus 3435CC subjects who were CYP2D6*10/*10, P=0.001): higher | metabolic ratios of risperidone (3435TT versus 3435CC with CYP2D6*10/*10, P=0.006): higher | AUC of risperidone (between ABCB1 3435C>T genotypes, healthy subjects (n=72), 2 mg): no significant differences | response to risperidone [2]: better response

CC(C)NCC(O)COc1cccc2[nH]ccc12 (stereo not shown) [pindolol]
rank order for antagonists [1]: yohimbine>phentolamine=mianserine>chlorpromazine=spiperone=prazosin>propanolol>alprenolol=pindolol

CNCCC=C1c2ccccc2CCc2ccccc21 [nortriptyline]
OR for nortriptyline-induced postural hypotension [3]: 1.37

COc1ccc(C(CN(C)C)C2(O)CCCCC2)cc1 (stereo not shown) [venlafaxine XR]
treatment outcome over time [4]: better treatment outcome

Fc1ccc([C@@H]2CCNC[C@H]2COc2ccc3c(c2)OCO3)cc1 [paroxetine]
P-gp substrate property (P-gp): substrates of P-gp | response to paroxetine [5]: poor response

Cc1cc2c(s1)Nc1ccccc1N=C2N1CCN(C)CC1 [olanzapine]
effect on weight gain [6]: protective effect against weight-gain

COC(=O)[C@@H]1[C@H]2C[C@H]3c4[nH]c5ccccc5c4CCN3C[C@@H]2CC[C@@H]1O [yohimbine]
rank order for antagonists [1]: yohimbine>phentolamine=mianserine>chlorpromazine=spiperone=prazosin>propanolol>alprenolol=pindolol

COc1ccc(C(CN(C)C)C2(O)CCCCC2)cc1 (stereo not shown) [venlafaxine]
P-gp substrate property (P-gp): substrates of P-gp

CN(C)CCC[C@@]1(c2ccc(F)cc2)OCc2cc(C#N)ccc21 [escitalopram]
remission on the antidepressant [7]: slower remission

NCCc1ccc(O)cc1 [p-tyramine]
rank order of potency for agonists [1]: oxymetazoline>clonidine>epinephrine>norepinephrine>phenylephrine>dopamine>p-synephrine>p-tyramine>serotonin=p-octopamine

O=C(CCCN1CCC2(CC1)C(=O)NCN2c1ccccc1)c1ccc(F)cc1 [spiperone]
rank order for antagonists [1]: yohimbine>phentolamine=mianserine>chlorpromazine=spiperone=prazosin>propanolol>alprenolol=pindolol

NC[C@H](O)c1ccc(O)c(O)c1 [norepinephrine]
rank order of potency for agonists [1]: oxymetazoline>clonidine>epinephrine>norepinephrine>phenylephrine>dopamine>p-synephrine>p-tyramine>serotonin=p-octopamine

C[C@H]1O[C@@H](O[C@H]2[C@@H](O)C[C@H](O[C@H]3[C@@H](O)C[C@H](O[C@H]4CC[C@@]5(C)[C@H](CC[C@@H]6[C@@H]5C[C@@H](O)[C@]5(C)[C@@H](C7=CC(=O)OC7)CC[C@]65O)C4)O[C@@H]3C)O[C@@H]2C)C[C@H](O)[C@@H]1O [digoxin]
digoxin plasma levels after oral administration [8]: increased

Cc1cc(C(C)(C)C)c(O)c(C)c1CC1=NCCN1 [oxymetazoline]
rank order of potency for agonists [1]: oxymetazoline>clonidine>epinephrine>norepinephrine>phenylephrine>dopamine>p-synephrine>p-tyramine>serotonin=p-octopamine

CN1CCN(C2=Nc3cc(Cl)ccc3Nc3ccccc32)CC1 [clozapine]
dose-normalized clozapine levels [9]: significantly lower
